Experimental data from patent US7098169B2, “Herbicide-safener combination based on isoxazoline carboxylate safeners” (Bayer CropScience GmbH, priority 2001, dated 2006).

What was measured:
Format in all cases: in vivo
ZEAMA = Zea mays (maize) = assay: Post-emergence treatment, safening by (Ib), visual injury score in maize (Table 1)
Method: 3.2 Effect of the Herbicide and Effect of the Safener when Applied Pre-Emergence Seeds or rhizome pieces of mono- and dicotyledenous harmful plants and of crop plants are placed in sandy loam soil in plastic pots, covered with soil and cultivated in a greenhouse under good growth conditions. Alternatively, harmful plants encountered in paddy rice cultivation are cultivated in pots where the water level is up to 2 cm above the soil surface. Three weeks after sowing, the test plants are treated at the three-leaf stage. […] In a series of trials the ability of herbicides to be […] by safener (Ib) was evaluated.

[1] = tested on: TRZAS, Triticum aestivum (wheat); assay: Pre-emergence application of herbicide-safener combination, visual injury score in wheat (Table 2); details: application rate 300 g a.i./ha
Method: (§1) The damage to the plants is assessed visually on a scale of 0–100% in comparison with control plants: • 0%=no noticeable effect in comparison with the untreated plant • 100%=the treated plant dies off. 3.2 Effect of the Herbicide and Effect of the Safener when Applied Pre-Emergence
(§2) Seeds or rhizome pieces of mono- and dicotyledonous harmful plants and of crop plants are placed in sandy loam soil in plastic pots of a diameter of 9 cm and covered with soil. Alternatively, harmful plants encountered in paddy rice cultivation are cultivated in water-saturated soil, where the amount of water poured into the pots is such that the water level is at the soil surface, or some millimeters above the soil surface. The herbicide/safener active compound combinations according to the invention, formulated in the form of emulsion concentrates, and, in parallel tests, the correspondingly formulated individual active compounds are then applied as emulsions to the surface of the soil cover in various dosages using an amount of water of 300 l/ha (converted), or, in the case of rice, are poured into the irrigation water. After the treatment, the pots are placed in a greenhouse and kept under good growth conditions for the weeds. […]

[2] = tested on: HORVS = Hordeum vulgare (barley); assay: Pre-emergence application of herbicide-safener combination, visual injury score in barley (Table 3); details: application rate 300 g a.i./ha (herbicide alone)
Method: as §1, §2

SMILES: CCOC(=O)C(Cl)Cc1cc(-n2nc(C)n(C(F)F)c2=O)c(F)cc1Cl (racemic) [(B4-1), ethyl (RS)-2-chloro-3-[2-chloro-5-(4-difluoromethyl-4,5-dihydro-3-methyl-5-oxo-1H-1,2,4-triazol-1-yl)-4-fluorophenyl]propionate]
- % injury to ZEAMA (ZEAMA = Zea mays (maize); application rate 36 g a.i./ha): 11%

SMILES: COc1ncc(F)c2nc(S(=O)(=O)Nc3c(F)cccc3F)nn12 [(B1-1), N-(2,6difluorophenyl)-8-fluoro-5-methoxy-1,2,4-triazolo[1,5-c]pyrimidin-2-sulfonamide]
- % injury to ZEAMA (ZEAMA = Zea mays (maize); application rate 10 g a.i./ha): 18%

SMILES: CCOc1nc(F)cc2nc(S(=O)(=O)Nc3c(Cl)cccc3C(=O)OC)nn12 [(B1-2), methyl 3-chloro-(5-ethoxy-7-fluoro[1,2,4]triazole-[1,5-c]pyrimidin-2-ylsulfonamido)-benzoate]
- % injury to ZEAMA (ZEAMA = Zea mays (maize); application rate 30 g a.i./ha): 32%

SMILES: O=C(O)COc1nc(Cl)c(Cl)cc1Cl [(B2-3), 3,5,6-trichloro-2-pyridyloxyacetic acid]
- % injury to ZEAMA (ZEAMA = Zea mays (maize); application rate 420 g a.i./ha): 22%

SMILES: Nc1c(Cl)c(F)nc(OCC(=O)O)c1Cl [(B2-4), 4-amino-3,5-dichloro-6-fluoro-2-pyridyloxyacetic acid]
- % injury to ZEAMA (ZEAMA = Zea mays (maize); application rate 160 g a.i./ha): 9%

SMILES: CSc1nnc(C(C)(C)C)c(=O)n1N [(B3-1), 4-amino-6-tert-butyl-4,5-dihydro3-methylthio-1,2,4-triazin-5-one]
- % injury to ZEAMA (ZEAMA = Zea mays (maize); application rate 560 g a.i./ha): 23%

SMILES: CCc1cccc(C)c1N(C(=O)CCl)[C@@H](C)COC [(B5-1)]
- % injury to TRZAS [1]: 70%
- % injury to HORVS [2]: 15%
